Test results reported in the NIST ThermoML archive (doi:10.1016/j.jct.2005.07.019).

Test: mn = molality of the nth substance listed, in mol/kg
Conditions: 350 kPa, Liquid, Extra sensitive DSC

NC(CO)C(=O)O (configuration not stated) [(.+-.)-serine] + O
apparent molar heat capacity [J/K/mol]
Conditions | m1 = 0.015 | m1 = 0.0308 | m1 = 0.0509 | m1 = 0.0807 | m1 = 0.1251 | m1 = 0.2505
278.15 K | 50 | 53.4 | 56.4 | 56.6 | 57.8 | 68
283.15 K | 71 | 74.1 | 76.7 | 76.7 | 77.7 | 86.3
288.15 K | 87 | 90.3 | 92.6 | 92.6 | 93.2 | 101
293.15 K | 101 | 103.7 | 105.7 | 105.8 | 106.1 | 113.1
298.15 K | 112 | 114.5 | 116.5 | 116.5 | 116.7 | 123
303.15 K | 121 | 123.9 | 125.8 | 125.7 | 125.7 | 131.4
308.15 K | 130 | 132.2 | 133.9 | 133.6 | 133.4 | 138.6
313.15 K | 137 | 139.3 | 140.7 | 140.4 | 140.2 | 144.9
318.15 K | 143 | 145.2 | 146.5 | 146.2 | 145.8 | 150.2
323.15 K | 149 | 150.3 | 151.6 | 151.3 | 150.9 | 154.9
328.15 K | 154 | 155 | 156.2 | 155.8 | 155.3 | 158.9
333.15 K | 158 | 159.4 | 160.4 | 159.9 | 159.3 | 162.6
338.15 K | 162 | 163.3 | 164.2 | 163.6 | 162.9 | 165.92
343.15 K | 166 | 166.3 | 167.2 | 166.6 | 165.9 | 168.74
348.15 K | 168 | 169 | 170.1 | 169.5 | 168.8 | 171.27
353.15 K | 170 | 171.6 | 172.5 | 172.1 | 171.2 | 173.56
358.15 K | 172 | 173.7 | 174.6 | 174 | 173.1 | 175.45
363.15 K | 174 | 175.7 | 176.6 | 176.2 | 175.3 | 177.16
368.15 K | 175 | 177.9 | 178.6 | 178.4 | 177 | 178.66
373.15 K | 177 | 179.9 | 180.5 | 179.7 | 178.2 | 179.8
378.15 K | 177 | 180.9 | 181.3 | 180.7 | 179.3 | 180.67
383.15 K | 177 | 181.7 | 182.2 | 181.5 | 180.2 | 181.46
388.15 K | 175 | 182.6 | 183 | 182.2 | 180.9 | 181.91
393.15 K | 173 | 183.3 | 183.3 | 182.8 | 181.6 | 182.2

N[C@H](CO)C(=O)O [(R)-(-)-serine] + O
apparent molar heat capacity [J/K/mol]
Conditions | m1 = 0.0151 | m1 = 0.0301 | m1 = 0.0501 | m1 = 0.08 | m1 = 0.1251 | m1 = 0.2505 | m1 = 0.35
278.15 K | 54.5 | 55.7 | 56.5 | 58.3 | 60.7 | 66.74 | 71.19
283.15 K | 75.2 | 76.1 | 76.8 | 78.4 | 80.6 | 85.06 | 89.13
288.15 K | 91.1 | 92.2 | 92.8 | 94.4 | 96.3 | 100.09 | 103.68
293.15 K | 104.3 | 105.4 | 106.1 | 107.6 | 109.2 | 112.47 | 115.73
298.15 K | 114.8 | 116.1 | 116.8 | 118.3 | 119.8 | 122.69 | 125.65
303.15 K | 123.8 | 125.6 | 126.3 | 127.5 | 128.8 | 131.45 | 134.16
308.15 K | 132.3 | 133.5 | 134.1 | 135.4 | 136.6 | 138.97 | 141.5
313.15 K | 139.7 | 140.5 | 141 | 142.1 | 143.3 | 145.58 | 147.86
318.15 K | 145.3 | 146.2 | 146.7 | 147.9 | 149 | 151.1 | 153.28
323.15 K | 150 | 151.2 | 151.8 | 153 | 154.1 | 156.06 | 158.13
328.15 K | 155 | 156 | 156.5 | 157.5 | 158.6 | 160.5 | 162.4
333.15 K | 159 | 160.2 | 160.7 | 161.7 | 162.6 | 164.4 | 166.3
338.15 K | 163 | 163.7 | 164.2 | 165.2 | 166.2 | 167.9 | 169.76
343.15 K | 166 | 167 | 167.4 | 168.3 | 169.2 | 170.9 | 172.7
348.15 K | 169 | 170.1 | 170.4 | 171.1 | 172 | 173.7 | 175.4
353.15 K | 171 | 172.2 | 172.6 | 173.6 | 174.4 | 176.1 | 177.8
358.15 K | 174 | 174.3 | 174.9 | 175.8 | 176.7 | 178.3 | 180
363.15 K | 176 | 176.2 | 176.7 | 177.7 | 178.5 | 180.2 | 181.8
368.15 K | 177 | 177.8 | 178.2 | 179.2 | 180.1 | 181.7 | 183.4
373.15 K | 178 | 179.3 | 179.6 | 180.5 | 181.4 | 183.1 | 184.7
378.15 K | 180 | 180.4 | 180.7 | 181.6 | 182.5 | 184.2 | 185.8
383.15 K | 181 | 181 | 181.4 | 182.4 | 183.3 | 185.2 | 186.8
388.15 K | 181 | 182 | 182.1 | 183 | 184 | 186 | 187.4
393.15 K | 182 | 182 | 182.5 | 183.5 | 184.4 | 186.5 | 187.9
